Laboratory results published in article PMC11948903, “Exploring the synergy between fungal CE15 glucuronoyl esterases and xylanases for lignocellulose saccharification” (Biotechnology for Biofuels and Bioproducts, 2025).

Key:
TlGE15 = system: T1, TlGE15; assay: HPLC of released cinnamyl alcohol (UV […] nm), Michaelis-Menten fit; format: biochemical, Trametes ljubarskyi; conditions: 40 °C, pH 5; substrate 0.2–5.0 mM; read-out: Kinetic parameters / KM
T1 construct: gene tlge; mature protein with N-terminal CBM1 and CE15 domain; native signal peptide (21 of 474 residues) removed; alpha-factor secretion signal, C-terminal His6 tag kept; Pichia pastoris X33

AeGE15 = system: T2, AeGE15; assay: as above; format: biochemical, Artolenzites elegans; conditions: 50 °C, pH 5; substrate 0.2–5.0 mM; read-out: Kinetic parameters / KM
T2 construct: gene aege; mature protein with N-terminal CBM1 and CE15 domain; native signal peptide (21 of 471 residues) removed; alpha-factor secretion signal, C-terminal His6 tag kept; Pichia pastoris X33

O=C(OC/C=C/c1ccccc1)[C@H]1OC(O)[C@H](O)[C@@H](O)[C@@H]1O (stereo partly drawn) [trans−3-phenyl-2-propen-1-yl D-glucopyranosyluronate]
Km (TlGE15): 3.2 ± 0.5 mM
Km (AeGE15): 3.6 ± 0.6 mM
